In brackets after ≈: the same amount, converted by molar mass.
Columns and labels:
Prot. vulgaris = assay: Agar dilution assay, M.I.C.; format: cell-based
Experimental: (§1) Representative 3-halovinylglycines and amino acid conjugates were tested for antibacterial activity by an agar dilution assay [being an modification of the antagonist-free-medium assay described in: Antimicrobial Agents and Chemotherapy, May 1979, pp 677-683 and pp 684-695]. Compounds asayed include (L) and (D)-3-chlorovinylglycine (HCL salts), (L) norvalyl-(L), (D), and (DL)-3-chlorovinylglycine (CF3 COOH salts), and (L) norvalyl-(L), (D), and (DL)-3 fluorovinylglycine (CF3 COOH) salts.
(§2) The antibacterial activity of the representative structure I compounds versus eleven representative strains of pathogenic bacteria is shown in the following Table.
(§3) Agar Dilution Asay [minimum inhibitory concentration (M.I.C.)-mg/ml]

K. pneumoniae = assay: Agar dilution assay, M.I.C.; format: cell-based; settings: for minimum inhibitory concentration (M.I.C.): agar dilution, K. pneumoniae
Experimental: as §1, §2, §3

E. coli = assay: Agar dilution assay, M.I.C.; format: cell-based
Experimental: as §1, §2, §3

S. aureus = assay: Agar dilution assay, M.I.C.; format: cell-based; settings: for minimum inhibitory concentration (M.I.C.): agar dilution, S. aureus
Experimental: as §1, §2, §3

Sal. typhimurium = assay: Agar dilution assay, M.I.C.; format: cell-based
Experimental: as §1, §2, §3

E. coli DC2 = assay: Agar dilution assay, M.I.C.; format: cell-based
Experimental: as §1, §2, §3

Strep. faecalis = assay: Agar dilution assay, M.I.C.; format: cell-based
Experimental: as §1, §2, §3

Ps. aeruginosa = assay: Agar dilution assay, M.I.C.; format: cell-based
Experimental: as §1, §2, §3

Ser. marcescens = assay: Agar dilution assay, M.I.C.; format: cell-based
Experimental: as §1, §2, §3

E. coli TEM 2^+ = assay: Agar dilution assay, M.I.C.; format: cell-based
Experimental: as §1, §2, §3

cystathionine synthetase = settings: synthesis of cystathionine from serine; cited from earlier work
Ent. cloacae P99^- = assay: Agar dilution assay, M.I.C.; format: cell-based
Experimental: as §1, §2, §3

[1] = system: eleven representative strains of pathogenic bacteria; assay: Agar dilution assay, panel of eleven strains; format: cell-based; settings: for number of test species against which activity is shown: M.I.C. equal to or less than 256 indicates antibacterial activity
Experimental: as §1, §2

Row | SMILES | minimum inhibitory concentration (M.I.C.) (Prot. vulgaris) | minimum inhibitory concentration (M.I.C.) (K. pneumoniae) | minimum inhibitory concentration (M.I.C.) (E. coli) | minimum inhibitory concentration (M.I.C.) (S. aureus) | minimum inhibitory concentration (M.I.C.) (Sal. typhimurium) | minimum inhibitory concentration (M.I.C.) (E. coli DC2) | minimum inhibitory concentration (M.I.C.) (Strep. faecalis) | minimum inhibitory concentration (M.I.C.) (Ps. aeruginosa) | minimum inhibitory concentration (M.I.C.) (Ser. marcescens) | minimum inhibitory concentration (M.I.C.) (E. coli TEM 2^+) | inactivation of cystathionine synthetase (in words) (cystathionine synthetase) | minimum inhibitory concentration (M.I.C.) (Ent. cloacae P99^-) | number of test species against which activity is shown [1] | antibacterial activity compared with the (L,D) diastereomer ([1]; antibacterial agar dilution assay) | antibacterial activity (in words) (K. pneumoniae; vs K. pneumoniae) | antibacterial activity (in words) (S. aureus; vs S. aureus)
1 | C=C(Cl)C(NC(=O)[C@@H](N)CCC)C(=O)O (mixture of isomers) [(L)-NVA-(DL)-Cl-vinylgly, L-norvalyl-D,L-3-chlorovinylglycine] | 256 mg/mL | 32 mg/mL | 128 mg/mL | ≤ 0.25 mg/mL | 256 mg/mL | 4 mg/mL | 4 mg/mL | > 256 mg/mL | > 256 mg/mL | > 256 mg/mL | – | – | – | – | – | –
2 | C=C(Cl)C(N)C(=O)O (racemic) [racemic 3-chlorovinylglycine, 2-amino-3-chloro-3-butenoic acid] | – | – | – | – | – | – | – | – | – | – | not being an inactivator | – | – | – | – | –
3 | CCC[C@H](N)C(=O)N[C@H](C=CCl)C(=O)O [(L)-NVA-(D)-Cl-vinylgly, L-norvalyl-D-3-chlorovinylglycine] | > 256 mg/mL | 64 mg/mL (≈ 273 mM) | > 256 mg/mL | 16 mg/mL (≈ 68.2 mM) | – | 32 mg/mL (≈ 136 mM) | 128 mg/mL (≈ 545 mM) | > 256 mg/mL | – | 256 mg/mL (≈ 1090 mM) | – | – | – | – | – | –
4 | C=C(F)[C@@H](NC(=O)[C@@H](N)CCC)C(=O)O.O=C(O)C(F)(F)F [(L)-NVA-(D)-F-vinylgly, (L,D)-Norvalyl-3-fluorovinylglycine trifluoroacetate] | > 256 mg/mL | > 256 mg/mL | > 256 mg/mL | > 256 mg/mL | > 256 mg/mL | > 256 mg/mL | > 256 mg/mL | > 256 mg/mL | > 256 mg/mL | > 256 mg/mL | – | – | – | – | – | –
5 | C=C(F)C(NC(=O)[C@@H](N)CCC)C(=O)O (stereo partly drawn) [(L)-NVA-(DL)-F-vinylgly, (L,DL)-Norvalyl-3-fluorovinylglycine trifluoracetate] | > 256 mg/mL | 128 mg/mL (≈ 587 mM) | 8 mg/mL (≈ 36.7 mM) | 1.0 mg/mL (≈ 4.58 mM) | 256 mg/mL (≈ 1170 mM) | 4 mg/mL (≈ 18.3 mM) | > 256 mg/mL | > 256 mg/mL | 256 mg/mL (≈ 1170 mM) | 128 mg/mL (≈ 587 mM) | – | 64 mg/mL (≈ 293 mM) | – | – | – | –
6 | C=C(Cl)[C@H](NC(=O)[C@@H](N)CCC)C(=O)O.O=C(O)C(F)(F)F [(L)-NVA-(L)-Cl-vinylgly, (L,L)-Norvalyl 3-chlorovinylglycine trifluoroacetate] | 256 mg/mL | 2 mg/mL | 32 mg/mL | 0.5 mg/mL | 64 mg/mL | 1 mg/mL | 4 mg/mL | > 256 mg/mL | > 256 mg/mL | 8 mg/mL | – | – | 8 of 11 | – | – | –
7 | C=C(F)[C@H](NC(=O)[C@@H](N)CCC)C(=O)O.O=C(O)C(F)(F)F [(L)-NVA-(L)-F-vinylgly, (L,L)-Norvalyl-3-fluorovinylglycine trifluoroacetate] | 32 mg/mL | 2 mg/mL | 4 mg/mL | > 256 mg/mL | 128 mg/mL | 2 mg/mL | 64 mg/mL | > 256 mg/mL | 64 mg/mL | 16 mg/mL | – | 32 mg/mL | 9 of 11 | more active | – | –
8 | N[C@@H](C=CCl)C(=O)O [(L)Cl vinylgly, L-3-chlorovinylglycine] | > 256 mg/mL | 256 mg/mL (≈ 1890 mM) | > 256 mg/mL | 128 mg/mL (≈ 944 mM) | > 256 mg/mL | – | – | > 256 mg/mL | > 256 mg/mL | > 256 mg/mL | – | – | – | – | exhibits antibacterial activity | exhibits antibacterial activity

Source: US4727062A, “3-Halovinylglycine antibacterial agents” (Merck & Co., Inc., priority 1986, dated 1988)
